Where a name gives a salt, the structure may show the parent alone.
Columns and labels:
[1] = test system: Borrelia; assay: Determination of Minimum Inhibitory Concentration (MIC); format: cell-based, B. burgdorferi; details: Borreliella burgdorferi; 72 hours, lowest concentration with no motile spirochete by microscopy
Experimental: (§1) The Minimum Inhibitory Concentration (MIC) of the small molecules identified through screening was determined by culturing 10^6/ml Borrelia in BSK-II medium with different concentrations (0.3 μM to 160 μM) of drugs. For MIC, 1 ml cultures with respective drugs were grown in 48 well plates in triplicates, wrapped with paraffin film and placed for 72 hours at 33° C. in a humidified CO2 incubator (Forma Scientific, USA) having 5% CO2 and 95% air. Cell proliferation was assessed using bacterial counting chamber (Petroff-Hausser Counter, Horsham, Pa., USA) by phase contrast microscopy. In parallel cell proliferation was also assessed BacTiter-Glo™ Assay. The counting was performed in all the 25 squares of the central grid. The BacTiter-Glo™ Assay was performed by mixing 100 μl of culture in each well with 100 μl of BacTiter-Glo™ reagent (Promega, Madison, Wis., USA). Then, the assay was performed according to the manufacturer's instructions. Luminescence was measured on a Flex station3 micro-plate reader at luminescence 500 ms.
(§2) To confirm the efficacy of the screening MIC and MBC values were evaluated. The MIC is determined as the lowest concentration at which no motile spirochete is observed by microscopy. […] The MBC was determined by sub-culturing 20 μl of the Borrelia cultures grown at different drug concentrations in fresh BSK-II medium for 21 days. The MBC value was determined when no spirochete was observed microscopically in the culture.

[2] = test system: Borrelia; assay: Determination of Minimum Bactericidal Concentration (MBC); format: cell-based, B. burgdorferi; details: Borreliella burgdorferi, 504 h; sub-culture in fresh BSK-II medium for 21 days, no spirochete observed
Experimental: For determining minimum bactericidal concentration (MBC), 20 μl of the 10^6/ml Borrelia cultures grown in BSK-II medium for 72 hours at different drug concentrations were added to the fresh BSK-II medium and sub-cultured for 3 weeks. After 3 weeks of incubation period, the samples were observed microscopically for motile spirochetes in the culture. The MIC and MBC determinations were done thrice independently.
as §2

[3] = test system: Borrelia cultures; assay: Secondary screening, Borrelia cell viability by BacTiter-Glo Assay; format: cell-based, B. burgdorferi; details: for efficacy (Borrelia cell viability assay): at 0.31 μM, FIG. 1B
Experimental: FIG. 1 depicts a Borrelia cell viability assay using agents (A) tetraethylthiuram disulfide, doxorubicin hydrochloride, and epirubicin hydrochloride and (B) azlocillin sodium and cephalothin sodium. The results represent mean±SD.
as §1
The viability of Borellia cultures was evaluated with BacTiter-Glo™ Assay.

[4] = test system: Borrelia isolate CA8 Bss; assay: Time-kill studies; format: cell-based, B. burgdorferi sensu stricto; details: 1.25 μM, CA8 strain
Experimental: Time-kill studies were performed with Borrelia isolate CA8 Bss with azlocillin sodium and cefotaxime acid. To determine the rate of antimicrobial activity, 10^6/ml Borrelia cultures were grown in BSK-II medium with drugs at different concentrations. BSK-II medium with no drugs is used as a control. The antibacterial activity was determined by counting bacteria at 24 hours, 48 hours and 72 hours. The experiment was done once with triplicates.

[5] = test system: doxycycline-tolerant Borrelia persisters; assay: Eradication of doxycycline-tolerant Bb persisters; format: cell-based, B. burgdorferi; details: 5 days, after doxycycline 2.5 μM to 40 μM for 3 days, FIG. 3B
Experimental: So to identify the drugs that kill drug-tolerant Borrelia persisters, 10^6/ml Borrelia in BSK-II medium was treated with concentrations of doxycycline ranging from 2.5 μM to 40 μM for 3 days. The doxycycline-tolerant persisters were treated with 20 μg and 40 μg Azlocillin for 5 days. After 5 days of treatment, the cultures were pelleted, washed and plated on semisolid BSK-II agarose plates for minimum 21 days. The plates were incubated for regrowth and colonies are counted. The study was performed thrice independently.

[6] = test system: Bb; details: C3H mouse model, urinary bladders, heart, ear skin
Experimental: After the synergy was determined the efficacy of the drugs were studied in vivo in the following way: C3H/HeN mice of 4-6 week old were infected intradermally in the abdominal area with 0.1 ml of BSK-II medium containing 10^5 Bb with a 25G tuberculin syringe. […] Cultures were monitored up to 6 weeks for motile spirochetes using darkfield microscopy.
To evaluate the efficacy of the drugs in vivo, they were tested in a C3H mouse model.

MIC [1] | Structure (SMILES) | MBC [2] | other results
≤ 3 µM | CCN(CC)C(=S)SSC(=S)N(CC)CC [Tetraethylthiuram disulfide] | ≤ 10 µM | concentration showing complete Borrelia cell inhibition ([3]; BacTiter-Glo Assay, FIG. 1A): 1.25 µM
≤ 3 µM | CC(=O)NC[C@H]1CN(c2ccc(N3CCOCC3)c(F)c2)C(=O)O1 [Linezolide] | – | –
≤ 3 µM | Cc1nnc(SCC2=C(C(=O)O)N3C(=O)[C@@H](NC(=O)Cn4cnnn4)[C@H]3SC2)s1 [Cefazolin sodium] | – | –
< 1 µM | COc1cccc2c1C(=O)c1c(O)c3c(c(O)c1C2=O)C[C@@](O)(C(=O)CO)C[C@@H]3O[C@H]1C[C@H](N)[C@@H](O)[C@H](C)O1 [Epirubicin hydrochloride] | < 1.5 µM | concentration uniformly effective against Bb ([3]; BacTiter-Glo Assay, FIG. 1A): 0.625 µM

Second part, the compound before the results:

Structure (SMILES) | MIC [1] | MBC [2] | other results
COc1cccc2c1C(=O)c1c(O)c3c(c(O)c1C2=O)C[C@@](O)(C(=O)CO)C[C@@H]3O[C@H]1C[C@H](N)[C@H](O)[C@H](C)O1 [Doxorubicin hydrochloride] | < 1 µM | < 1.5 µM | concentration uniformly effective against Bb ([3]; BacTiter-Glo Assay, FIG. 1A): 0.625 µM
CO[C@@H]1[C@@H](O[C@@H]2O[C@H](C)[C@@H](O[C@H]3C[C@@](C)(O)[C@@H](OC(=O)CC(C)C)[C@H](C)O3)[C@H](N(C)C)[C@H]2O)[C@@H](CC=O)C[C@@H](C)[C@@H](O)/C=C/C=C/C[C@@H](C)OC(=O)C[C@H]1O [leucomycin] | – | ≤ 10 µM | –
CO/N=C(\C(=O)N[C@@H]1C(=O)N2C(C(=O)O)=C(COC(C)=O)CS[C@H]12)c1csc(N)n1 [Cefotaxime acid] | ≤ 3 µM | ≤ 10 µM | decrease of initial Borrelia inoculum, time-kill [4]: 1 log10-unit; elimination of doxycycline-tolerant Borrelia persisters ([5]; 40 μg): killed the Borrelia persisters completely; elimination of Borrelia infection in vivo (failure to culture live spirochetes from tissues after treatment) [6]: very effective in eliminating Borrelia infection
CC1(C)S[C@@H]2[C@H](NC(=O)[C@H](NC(=O)N3CCNC3=O)c3ccccc3)C(=O)N2[C@H]1C(=O)O [Azlocillin sodium] | ≤ 3 µM | ≤ 10 µM | elimination of doxycycline-tolerant Borrelia persisters ([5]; 20 μg): completely eliminated; elimination of doxycycline-tolerant Borrelia persisters ([5]; 40 μg): completely eliminated; elimination of Borrelia infection in vivo (failure to culture live spirochetes from tissues after treatment) [6]: very effective in eliminating Borrelia infection; efficacy (Borrelia cell viability assay) [3]: ~99%
CC(=O)[C@]1(O)Cc2c(O)c3c(c(O)c2[C@@H](O[C@H]2C[C@H](N)[C@H](O)[C@H](C)O2)C1)C(=O)c1ccccc1C3=O [Idarubicin HCl] | – | ≤ 10 µM | –
CC(=O)OCC1=C(C(=O)O)N2C(=O)[C@@H](NC(=O)Cc3cccs3)[C@H]2SC1 [Cephalothin sodium] | ≤ 3 µM | – | efficacy (Borrelia cell viability assay) [3]: ~99%

— patent US20190117630A1, “METHODS AND DRUG COMPOSITIONS FOR TREATING LYME DISEASE” (priority 2016, published 2019)
